Measurements published in US20090099167A1, “Organic compounds” (Novartis Institutes for Biomedical Research, priority 2004, published 2009).
Like-named read-outs stand apart in the source and are kept apart here.

Experiments:
[1] = biological target: T1, human Flt-3 (Homo sapiens, UniProt P36888); assay: Flt3 kinase inhibition, GST-Flt-3, 33P incorporation into poly(Glu,Tyr); format: biochemical
T1 construct: expressing the amino acid region amino acids 563-993 of the cytoplasmic kinase domain of human Flt-3; made in house; host or cells: Sf9 (baculovirus)
T1 sequence (P36888 563-993): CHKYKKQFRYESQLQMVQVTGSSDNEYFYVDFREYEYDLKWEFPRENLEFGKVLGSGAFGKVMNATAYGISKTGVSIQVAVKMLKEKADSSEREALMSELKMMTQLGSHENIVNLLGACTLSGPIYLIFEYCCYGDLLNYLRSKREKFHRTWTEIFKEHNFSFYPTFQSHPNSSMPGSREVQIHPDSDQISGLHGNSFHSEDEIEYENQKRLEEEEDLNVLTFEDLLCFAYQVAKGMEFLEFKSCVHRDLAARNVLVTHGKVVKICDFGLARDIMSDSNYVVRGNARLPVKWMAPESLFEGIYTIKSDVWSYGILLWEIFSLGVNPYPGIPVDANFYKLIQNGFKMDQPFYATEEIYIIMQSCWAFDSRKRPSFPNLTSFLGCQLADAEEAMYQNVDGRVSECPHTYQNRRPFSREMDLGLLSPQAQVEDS
Experimental: (§1) The compounds to be tested are then diluted in culture medium (without FCS, with 0.1% bovine serum albumin) and added to the cells. (Controls comprise medium without test compounds). After two hours' incubation at 37° C., recombinant VEGF is added; the final VEGF concentration is 20 ng/ml). After a further five minutes incubation at 37° C., the cells are washed twice with ice-cold PBS (phosphate-buffered saline) and immediately lysed in 100 μl lysis buffer per well. The lysates are then centrifuged to remove the cell nuclei, and the protein concentrations of the supernatants are determined using a commercial protein assay (BIORAD). The lysates can then either be immediately used or, if necessary, stored at −20° C. A sandwich ELISA is carried out to measure the VEGF-R2 phosphorylation: a monoclonal antibody to VEGF-R2 (for example Mab 1495.12.14; ProQinase, Freiburg, Germany) is immobilized on black ELISA plates (OptiPlate™ HTRF-96 from Packard). The plates are then washed and the remaining free protein-binding sites are saturated with 3% TopBlock® (Juro, Cat. # TB232010) in phosphate buffered saline with Tween 20® (polyoxyethylen(20)-sorbitane monolaurate, ICI/Uniquema) (PBST). The cell lysates (20 μg protein per well) are then incubated in these plates overnight at 4° C. together with an antiphosphotyrosine antibody coupled with alkaline phosphatase (PY20:AP from Zymed). […] The luminescence is measured in a Packard Top Count Microplate Scintillation Counter. The difference between the signal of the positive control (stimulated with VEGF) and that of the negative control (not stimulated with VEGF) corresponds to VEGF-induced VEGF-R2 phosphorylation (=100%). The activity of the tested substances is calculated as percent inhibition of VEGF-induced VEGF-R2 phosphorylation, wherein the concentration of substance that induces half the maximum inhibition is defined as the IC50 (inhibitory dose for 50% inhibition). […] Flt3 kinase inhibition is determined as follows: The baculovirus donor vector pFbacG01 (GIBCO) is used to generate a recombinant baculovirus expressing the amino acid region amino acids 563-993 of the cytoplasmic kinase domain of human Flt-3. The coding sequence for the cytoplasmic domain of Flt-3 is amplified by PCR from human c-DNA libraries (Clontech). The amplified DNA fragments and the pFbacG01 vector are made compatible for ligation by digestion with BamH1 and HindIII. Ligation of these DNA fragments results in the baculovirus donor plasmid Flt-3(1.1). The production of the viruses, the expression of proteins in Sf9 cells and the purification of the GST-fused proteins are performed as follows: Production of virus: Transfer vector (pFbacG01-Flt-3) containing the Flt-3 kinase domain is transfected into the DH10Bac cell line (GIBCO) and the transfected cells are plated on selective agar plates. Colonies without insertion of the fusion sequence into the viral genome (carried by the bacteria) are blue. Single white colonies are picked and viral DNA (bacmid) is isolated from the bacteria by standard plasmid purification procedures. Sf9 or Sf21 cells (American Type Culture Collection) are then transfected in flasks with the viral DNA using Cellfectin reagent. Determination of small scale protein expression in Sf9 cells: Virus containing media is collected from the transfected cell culture and used for infection to increase its titre. Virus containing media obtained after two rounds of infection is used for large-scale protein expression. For large-scale protein expression 100 cm^2 round tissue culture plates are seeded with 5×10^7 cells/plate and infected with 1 mL of virus-containing media (approx. 5 MOIs). After 3 days the cells are scraped off the plate and centrifuged at 500 rpm for 5 min. Cell pellets from 10-20, 100 cm^2 plates, are resuspended in 50 mL of ice-cold lysis buffer (25 mMTris-HCl, pH 7.5, 2 mM EDTA, 1% NP-40, 1 mM DTT, 1 mM PMSF). The cells are stirred on ice for 15 min and then centrifuged at 5000 rpms for 20 min. […]

[2] = biological target: T2, human VEGF-R2 receptor (KDR) (Homo sapiens, UniProt P35968); assay: VEGF-induced KDR autophosphorylation in transfected CHO cells, sandwich ELISA; format: cell-based; conditions: Table 5; read-out: KDR, IC50 class
T2 construct: expressed in transfected cells; host or cells: CHO cells
Experimental: as §1

[3] = Table 5, read-out: Flt-3, IC50 class

T2 sequence (P35968 20-1356): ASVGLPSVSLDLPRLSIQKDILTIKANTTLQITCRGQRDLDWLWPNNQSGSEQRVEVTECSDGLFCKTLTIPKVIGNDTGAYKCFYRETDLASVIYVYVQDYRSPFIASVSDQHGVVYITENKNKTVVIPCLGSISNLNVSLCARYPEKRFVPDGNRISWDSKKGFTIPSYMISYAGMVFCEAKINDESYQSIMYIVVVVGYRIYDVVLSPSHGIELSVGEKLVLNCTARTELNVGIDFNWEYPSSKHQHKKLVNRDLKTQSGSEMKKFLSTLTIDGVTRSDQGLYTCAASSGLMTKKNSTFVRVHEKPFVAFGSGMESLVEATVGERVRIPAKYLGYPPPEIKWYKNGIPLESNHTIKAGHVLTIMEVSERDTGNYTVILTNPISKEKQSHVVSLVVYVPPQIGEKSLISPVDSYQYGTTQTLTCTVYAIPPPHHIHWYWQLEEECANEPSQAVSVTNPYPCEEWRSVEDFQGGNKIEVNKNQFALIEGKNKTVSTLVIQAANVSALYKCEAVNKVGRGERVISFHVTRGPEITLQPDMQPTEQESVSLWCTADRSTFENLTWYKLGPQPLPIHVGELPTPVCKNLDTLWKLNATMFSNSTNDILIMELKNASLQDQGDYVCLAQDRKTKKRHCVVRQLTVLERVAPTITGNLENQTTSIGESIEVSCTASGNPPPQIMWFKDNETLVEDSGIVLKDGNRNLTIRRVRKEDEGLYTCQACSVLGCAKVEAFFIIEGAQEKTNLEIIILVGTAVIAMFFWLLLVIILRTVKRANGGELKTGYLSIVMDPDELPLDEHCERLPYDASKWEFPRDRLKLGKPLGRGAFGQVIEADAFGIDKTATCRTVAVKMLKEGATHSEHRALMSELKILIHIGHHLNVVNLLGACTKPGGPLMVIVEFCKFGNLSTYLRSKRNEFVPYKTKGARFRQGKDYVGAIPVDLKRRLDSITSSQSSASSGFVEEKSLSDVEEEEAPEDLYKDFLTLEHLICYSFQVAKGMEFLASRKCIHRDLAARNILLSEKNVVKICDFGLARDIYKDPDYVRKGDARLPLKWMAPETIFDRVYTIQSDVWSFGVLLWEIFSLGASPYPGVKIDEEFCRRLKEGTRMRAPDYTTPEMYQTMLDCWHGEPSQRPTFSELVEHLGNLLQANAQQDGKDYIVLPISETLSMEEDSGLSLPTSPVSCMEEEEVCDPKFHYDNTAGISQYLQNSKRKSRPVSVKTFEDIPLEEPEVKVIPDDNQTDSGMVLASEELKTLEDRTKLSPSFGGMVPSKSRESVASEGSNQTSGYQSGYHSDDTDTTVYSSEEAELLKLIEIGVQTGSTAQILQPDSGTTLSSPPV

Row | Structure (SMILES) | IC50 ([1]; Table 4, read-out: Flt-3, activity (IC50 for kinase inhibition)) [µM] | IC50 [1, 3] [µM] | IC50 [2] [µM]
1 | CN1CCN(c2cccc(-c3cnn4c(N)c(-c5ccc(O)cc5)cnc34)c2)CC1 [Example 39, 4-{7-Amino-3-[3-(4-methyl-piperazin-1-yl)-phenyl]-pyrazolo[1,5-a]pyrimidin-6-yl}-phenol] | < 10 | – | –
2 | Cc1nc2c(-c3cccc(N4CCN(C)CC4)c3)cnn2c(N)c1-c1ccc(F)c(Cl)c1 [Example 82, 6-(3-Chloro-4-fluoro-phenyl)-5-methyl-3-[3-(4-methyl-piperazin-1-yl)-phenyl]pyrazolo[1,5-a]pyrimidin-7-ylamine] | – | > 10 | > 10
3 | Cc1nc2c(-c3cccc(N4CC[N+](C)([O-])CC4)c3)cnn2c(N)c1-c1ccc(F)cc1 [Example 106, 6-(4-Fluoro-phenyl)-5-methyl-3-[3-(4-methyl-4-oxy-piperazin-1-yl)-phenyl]-pyrazolo[1,5-a]pyrimidin-7-ylamine] | – | > 10 | > 10
4 | Cc1nc2c(-c3cccc([N+]4([O-])CC[N+](C)([O-])CC4)c3)cnn2c(N)c1-c1ccc(F)cc1 (stereo not drawn) [Example 107, 6-(4-Fluoro-phenyl)-5-methyl-3-[3-(4-methyl-1,4-dioxy-piperazin-1-yl)-phenyl]-pyrazolo[1,5-a]pyrimidin-7-ylamine] | – | > 10 | > 10
5 | Cc1nc2c(-c3cccc(N4CCC(N5CCCC5)CC4)c3)cnn2c(N)c1-c1cccc(Cl)c1 [Example 102, 6-(3-Chloro-phenyl)-5-methyl-3-[3-(4-pyrrolidin-1-yl-piperidin-1-yl)-phenyl]-pyrazolo[1,5-a]pyrimidin-7-ylamine] | – | > 10 | > 10
6 | COc1ccc(-c2cnn3c(N)c(-c4ccc(F)c(Cl)c4)c(C)nc23)cc1 [Example 95, 6-(3-Chloro-4-fluoro-phenyl)-3-(4-methoxy-phenyl)-5-methyl-pyrazolo[1,5-a]pyrimidin-7-ylamine] | – | > 10 | > 10
7 | CN1CCN(c2cccc(-c3cnn4c(N)c(Cc5cccc(Br)c5)cnc34)c2)CC1 [Example 85, 6-(3-Bromo-benzyl)-3-[3-(4-methyl-piperazin-1-yl)-phenyl]pyrazolo[1,5-a]pyrimidin-7-ylamine] | – | > 10 | > 10
8 | COc1ccc(-c2cnn3c(N)c(-c4ccc(F)cc4)c(C)nc23)cc1 [Example 96, 6-(4-Fluoro-phenyl)-3-(4-methoxy-phenyl)-5-methyl-pyrazolo[1,5-a]pyrimidin-7-ylamine] | – | > 10 | > 10
9 | COc1ccc(-c2cnn3c(N)c(-c4ccc(F)c(Cl)c4)c(C)nc23)cc1OC [Example 94, 6-(3-Chloro-4-fluoro-phenyl)-3-(3,4-dimethoxy-phenyl)-5-methyl-pyrazolo[1,5-a]pyrimidin-7-ylamine] | – | > 10 | > 10

Now from value to compound:

Row | IC50 ([1]; Table 4, read-out: Flt-3, activity (IC50 for kinase inhibition)) [µM] | IC50 [1, 3] [µM] | IC50 [2] [µM] | Structure (SMILES)
10 | – | > 10 | < 1 | CN1CCN(c2cccc(-c3cnn4c(N)c(-c5cccc(Br)c5)cnc34)c2)CC1 [Example 86, 6-(3-Bromo-phenyl)-3-[3-(4-methyl-piperazin-1-yl)-phenyl]-pyrazolo[1,5-a]pyrimidin-7-ylamine]
11 | – | > 10 | 1 to 10 | Cc1nc2c(-c3ccc(N4CCN(C)CC4)cc3)cnn2c(N)c1-c1ccc(F)cc1 [Example 79, 6-(4-Fluoro-phenyl)-5-methyl-3-[4-(4-methyl-piperazin-1-yl)-phenyl]-pyrazolo[1,5-a]pyrimidin-7-ylamine]
12 | – | > 10 | 1 to 10 | COc1ccc(-c2cnn3c(N)c(-c4cccc(Cl)c4)c(CF)nc23)cc1OC [Example 92, 6-(3-Chloro-phenyl)-3-(3,4-dimethoxy-phenyl)-5-fluoromethyl-pyrazolo[1,5-a]pyrimidin-7-ylamine]
13 | – | 1 to 10 | 1 to 10 | Cc1nc2c(-c3cccc(N4CCN(C)CC4)c3)cnn2c(N)c1-c1ccc(F)cc1 [Example 80, 6-(4-Fluoro-phenyl)-5-methyl-3-[3-(4-methyl-piperazin-1-yl)-phenyl]-pyrazolo[1,5-a]pyrimidin-7-ylamine]
14 | – | < 1 | < 1 | COc1cc(N2CCN(C)CC2)ccc1-c1cnn2c(N)c(-c3cccc(O)c3)cnc12 [Example 76, 3-{7-Amino-3-[2-methoxy-4-(4-methyl-piperazin-1-yl)-phenyl]-pyrazolo[1,5-a]pyrimidin-6-yl}-phenol]
15 | – | > 10 | 1 to 10 | Cc1nc2c(-c3cccc(N4CCOCC4)c3)cnn2c(N)c1-c1cccc(Cl)c1 [Example 87, 6-(3-Chloro-phenyl)-5-methyl-3-(3-morpholin-4-yl-phenyl)-pyrazolo[1,5-a]pyrimidin-7-ylamine]
16 | – | > 10 | 1 to 10 | COc1ccc(-c2cnn3c(N)c(-c4cccc(Cl)c4)c(C)nc23)cc1 [Example 88, 6-(3-Chloro-phenyl)-3-(4-methoxy-phenyl)-5-methyl-pyrazolo[1,5-a]pyrimidin-7-ylamine]
17 | – | – | 1 to 10 | COc1cc(N2CCN(C)CC2)ccc1-c1cnn2c(N)c(-c3cccc(Cl)c3)c(C)nc12 [Example 75, 6-(3-Chloro-phenyl)-3-[2-methoxy-4-(4-methyl-piperazin-1-yl)-phenyl]-5-methyl-pyrazolo[1,5-a]pyrimidin-7-ylamine]
18 | – | > 10 | 1 to 10 | Cc1nc2c(-c3cccc(N4C[C@@H](C)O[C@@H](C)C4)c3)cnn2c(N)c1-c1cccc(Cl)c1 [Example 89, 6-(3-Chloro-phenyl)-3-[3-((2R,6S)-2,6-dimethyl-morpholin-4-yl)-phenyl]-5-methyl-pyrazolo[1,5-a]pyrimidin-7-ylamine]
19 | – | > 10 | 1 to 10 | Cc1nc2c(-c3cccc(N4CCN(CCO)CC4)c3)cnn2c(N)c1-c1cccc(Cl)c1 [Example 90, 2-(4-{3-[7-Amino-6-(3-chloro-phenyl)-5-methyl-pyrazolo[1,5-a]pyrimidin-3-yl]-phenyl}-piperazin-1-yl)-ethanol]
20 | – | > 10 | < 1 | Cc1nc2c(-c3cccc(N4CCN(C)CC4)c3)cnn2c(N)c1-c1cccc(Cl)c1 [Example 72, 6-(3-Chloro-phenyl)-5-methyl-3-[3-(4-methyl-piperazin-1-yl)-phenyl]-pyrazolo[1,5-a]pyrimidin-7-ylamine]
21 | – | > 10 | 1 to 10 | Cc1nc2c(-c3cccc(N4CCN(CCO)CC4)c3)cnn2c(N)c1-c1ccc(F)c(Cl)c1 [Example 100, 2-(4-{3-[7-Amino-6-(3-chloro-4-fluoro-phenyl)-5-methyl-pyrazolo[1,5-a]pyrimidin-3-yl]-phenyl}-piperazin-1-yl)-ethanol]
22 | – | > 10 | 1 to 10 | Cc1nc2c(-c3cccc(N4CCN(CCO)CC4)c3)cnn2c(N)c1-c1ccc(F)cc1 [Example 97, 2-(4-{3-[7-Amino-6-(4-fluoro-phenyl)-5-methyl-pyrazolo[1,5-a]pyrimidin-3-yl]-phenyl}-piperazin-1-yl)-ethanol]
